From the supplement of paper PMC10307832

Key:
Test in all cases: relative viability (nuclei count vs DMSO), 5 days (fraction); higher = more cells survive
BGJ398 + Dasatinib = compound: CCN1CCN(c2ccc(Nc3cc(N(C)C(=O)Nc4c(Cl)c(OC)cc(OC)c4Cl)ncn3)cc2)CC1 [BGJ398] + Cc1nc(Nc2ncc(C(=O)Nc3c(C)cccc3Cl)s2)cc(N2CCN(CCO)CC2)n1 [Dasatinib] (partner 0.075 µM)
Method in brief: (§1)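 A single step with final 0.05% Triton X-100, 1% formaldehyde and 1 ug/ml Hoechst fixed the cells and stained nuclei 5 days after treatment. Lung cancer cell lines in 1536-well plates had been treated by pin tool the day after seeding with one drug alone or a fixed anchor-drug dose plus five library-drug doses (not always all listed) in √10 steps, and nuclei were counted on 4× images. Relative viability is the ratio of nuclei in treated wells to nuclei in vehicle wells, taken as the median of duplicate plates.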

[1] = compound: C1=CC2=NC=CN=C2C=C1/C=C/3\C(=O)NC(=O)S3 + CC(C)C[C@H](NC(=O)[C@H](Cc1ccccc1)NC(=O)c1cnccn1)B(O)O [Bortezomib] (partner 0.002 µM)
Method in brief: as §1

[2] = compound: C1=CC2=NC=CN=C2C=C1/C=C/3\C(=O)NC(=O)S3 + Nc1ncn([C@H]2C[C@H](O)[C@@H](CO)O2)c(=O)n1 [Decitabine] (partner 2 µM)
Method in brief: as §1

BGJ398 + Luminespib = compound: CCN1CCN(c2ccc(Nc3cc(N(C)C(=O)Nc4c(Cl)c(OC)cc(OC)c4Cl)ncn3)cc2)CC1 [BGJ398] + CCNC(=O)c1noc(-c2cc(C(C)C)c(O)cc2O)c1-c1ccc(CN2CCOCC2)cc1 [Luminespib] (partner 0.01 µM)
Method in brief: as §1

Cell Line | relative viability (BGJ398 + Dasatinib; first compound 0.01 µM) | relative viability (BGJ398 + Dasatinib; first compound 0.03162 µM) | relative viability (BGJ398 + Dasatinib; first compound 0.1 µM) | relative viability (BGJ398 + Dasatinib; first compound 0.3162 µM) | relative viability (BGJ398 + Dasatinib; first compound 1 µM) | relative viability ([1]; first compound 0.02 µM) | relative viability ([1]; first compound 0.06325 µM) | relative viability ([1]; first compound 0.2 µM) | relative viability ([1]; first compound 0.6325 µM) | relative viability ([1]; first compound 2 µM) | relative viability ([2]; first compound 0.02 µM) | relative viability ([2]; first compound 0.06325 µM) | relative viability ([2]; first compound 0.2 µM) | relative viability ([2]; first compound 0.6325 µM) | relative viability ([2]; first compound 2 µM) | relative viability (BGJ398 + Luminespib; first compound 0.01 µM) | relative viability (BGJ398 + Luminespib; first compound 0.03162 µM) | relative viability (BGJ398 + Luminespib; first compound 0.1 µM) | relative viability (BGJ398 + Luminespib; first compound 0.3162 µM) | relative viability (BGJ398 + Luminespib; first compound 1 µM)
201T | 0.582 | 0.557 | 0.5 | 0.566 | 0.514 | 0.979 | 1.1 | 1.1 | 1.08 | 1.03 | 0.901 | 0.864 | 0.824 | 0.87 | 0.879 | 1.24 | 0.976 | 1.07 | 1.04 | 0.979
A549 |  |  |  |  |  |  |  |  |  |  | 0.292 | 0.245 | 0.297 | 0.273 | 0.293 |  |  |  |  | 
A-427 | 0.656 | 0.694 | 0.674 | 0.348 | 0.598 | 0.991 | 1.1 | 1.04 | 0.915 | 0.965 | 0.541 | 0.583 | 0.55 | 0.538 | 0.491 | 0.903 | 0.907 | 1 | 0.794 | 0.81
ABC-1 | 0.504 | 0.539 | 0.608 | 0.545 | 0.515 | 0.3 | 0.263 | 0.328 | 0.261 | 0.27 | 1.04 | 1.31 | 1.4 | 1.1 | 0.806 | 0.795 | 0.782 | 0.507 | 0.912 | 0.876
BEN | 0.349 | 0.298 | 0.331 | 0.252 | 0.26 | 0.803 | 0.982 | 0.904 | 0.566 | 0.705 | 0.715 | 0.774 | 0.886 | 0.691 | 0.635 | 0.376 | 0.402 | 0.33 | 0.376 | 0.597
CAL-12T | 0.534 | 0.554 | 0.443 | 0.386 | 0.325 | 1.05 | 1.06 | 0.921 | 0.97 | 0.966 |  |  |  |  |  | 0.257 | 0.391 | 0.326 | 0.4 | 0.232
COR-L23 | 0.474 | 0.527 | 0.571 | 0.464 | 0.456 | 0.906 | 0.947 | 0.972 | 0.95 | 0.941 | 0.481 | 0.466 | 0.445 | 0.414 | 0.369 | 0.745 | 0.731 | 0.598 | 0.799 | 0.789
COR-L 105 | 0.275 | 0.279 | 0.371 | 0.307 | 0.276 | 0.717 | 0.887 | 0.864 | 0.759 | 0.755 | 0.599 | 0.69 | 0.673 | 0.683 | 0.593 | 0.69 | 0.972 | 0.832 | 0.93 | 0.801
Calu-6 |  |  |  |  |  | 1.03 | 1.1 | 1.22 | 1.1 | 0.98 |  |  |  |  |  |  |  |  |  | 
ChaGo-K-1 | 0.598 | 0.582 | 0.613 | 0.545 | 0.627 | 1.05 | 1.65 | 1.16 | 0.952 | 0.868 | 0.512 | 0.459 | 0.533 | 0.498 | 0.568 | 0.595 | 0.673 | 0.724 | 0.577 | 0.651
EBC-1 |  |  |  |  |  | 0.538 | 0.648 | 0.587 | 0.546 | 0.816 |  |  |  |  |  |  |  |  |  | 
EKVX | 0.528 |  | 0.807 | 0.539 | 0.565 | 0.906 | 1.07 | 0.969 | 0.911 | 0.871 | 0.258 | 0.399 | 0.287 | 0.337 | 0.373 | 0.783 | 0.859 | 0.999 | 0.782 | 0.966
EMC-BAC-2 | 0.273 | 0.337 | 0.355 | 0.36 | 0.314 | 1.01 | 1.2 | 1.02 | 0.997 | 0.895 | 0.933 | 1.01 | 1.05 | 0.922 | 0.808 | 1.14 | 1.25 | 1.22 | 1.16 | 1.09
EPLC-272H | 0.44 | 0.303 | 0.286 | 0.321 | 0.32 | 0.8 | 1.05 | 0.898 | 0.857 | 0.808 | 0.351 | 0.344 | 0.4 | 0.356 | 0.321 | 0.29 | 0.235 | 0.21 | 0.716 | 0.451
H3255 | 0.399 |  | 0.41 | 0.274 | 0.353 | 0.869 | 0.91 | 0.778 | 0.682 | 0.741 | 0.6 | 0.649 | 0.595 | 0.534 | 0.622 | 0.888 |  | 1.02 | 0.625 | 0.422
HARA | 0.26 | 0.196 | 0.227 | 0.232 | 0.151 | 1.11 | 1.18 | 1.26 | 1.09 | 1.15 | 0.537 | 0.587 | 0.498 | 0.614 | 0.63 | 0.652 | 0.862 | 0.682 | 0.374 | 0.679
